Measurements published in patent US10654834B2 (Venenum Biodesign, LLC, priority 2016, dated 2020).
Counter-ions that a name gives are not always drawn.

Columns and labels:
human TGR5 receptor = target: T1, human TGR5 receptor (Homo sapiens, UniProt Q8TDU6); assay: Human TGR5 cAMP production assay (hTGR5-CHO cells, DiscoveRx cAMP XS+ kit); format: cell-based; details: luminescent cAMP assay, read-out: Human TGR5 Lum. cAMP Activity (EC50)
T1 construct: host or cells: CHO-K1 (hTGR5-CHO)
T1 sequence (Q8TDU6 1-330): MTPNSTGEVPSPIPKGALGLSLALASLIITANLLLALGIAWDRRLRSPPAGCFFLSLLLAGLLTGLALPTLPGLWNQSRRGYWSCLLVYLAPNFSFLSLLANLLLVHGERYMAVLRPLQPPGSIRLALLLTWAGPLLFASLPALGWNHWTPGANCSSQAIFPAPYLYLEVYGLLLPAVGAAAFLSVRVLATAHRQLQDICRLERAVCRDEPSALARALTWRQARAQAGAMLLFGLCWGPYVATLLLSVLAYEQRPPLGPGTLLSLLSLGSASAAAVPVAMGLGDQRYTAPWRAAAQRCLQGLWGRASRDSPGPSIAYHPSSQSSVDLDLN
Outline: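 EC50 values come from luminescent enzyme-complementation cAMP detection, read after overnight incubation. Beforehand, hTGR5-expressing CHO-K1 cells with IBMX and anti-cAMP antibody were exposed 1 h at room temperature to serially diluted (half-log) compounds.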

mouse TGR5 receptor = target: T2, mouse TGR5 receptor (Mus musculus, UniProt Q80SS6); assay: Mouse TGR5 luminescent cAMP production assay (HEK293-EBNA cells, DiscoveRx cAMP XS+ kit); format: cell-based; details: HEK293-EBNA cells overexpressing mouse TGR5, luminescent cAMP assay; read-out: Mouse TGR5 Lum. cAMP Activity (EC50)
T2 construct: host or cells: HEK293-EBNA (293 c18, ATCC CRL10852)
T2 sequence (Q80SS6 1-329): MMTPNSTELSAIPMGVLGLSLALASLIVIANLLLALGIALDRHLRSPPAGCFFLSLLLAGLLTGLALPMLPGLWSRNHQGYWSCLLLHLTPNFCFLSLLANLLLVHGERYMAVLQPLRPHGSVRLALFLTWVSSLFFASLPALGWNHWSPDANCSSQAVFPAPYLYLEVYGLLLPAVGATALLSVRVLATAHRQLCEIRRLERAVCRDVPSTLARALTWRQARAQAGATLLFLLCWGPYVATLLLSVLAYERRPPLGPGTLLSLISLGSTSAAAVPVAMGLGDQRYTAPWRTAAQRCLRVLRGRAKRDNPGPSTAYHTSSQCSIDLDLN
Procedure: Mouse TGR5 cAMP Production Assay
Compounds of the present invention were evaluated for their ability to induce cAMP production in HEK-EBNA cells overexpressing the mouse TGR5 receptor. Human embryonic kidney cells (HEK293-EBNA) stably expressing mouse TGR5 receptor were established using the following procedure. Specifically, a commercially obtained gene encoding mouse TGR5 (accession number BC116914) from Thermo Scientific (Waltham, Mass.) was cloned into an episomal expression vector. The resulting expression plasmid was then transfected into 293 c18 (ATCC® CRL10852™) cells, which express the Epstein-Barr virus nuclear antigen EBNA1 and can support the replication of episomal vectors. Selection for the plasmid was maintained with Hygromycin B. Cells were cultured and maintained in DMEM (Sigma; cat #6429) supplemented with 10% Fetal Bovine Serum, 1% penicillin/streptomycin, 2 mM L-alanine L-glutamine (GlutaMax), and 250 μg/mL Hygromycin.
We developed two cAMP production assays.
(i) Luminescent cAMP Production Assay
In this first cAMP production assay, the cAMP production was measured using DiscoveRx's cAMP XS+ kit following the manufacturer's recommended protocol. Briefly, HEK293-EBNA cells stably overexpressing mouse TGR5 were harvested using non-enzymatic cell dissociation buffer (Sigma-Aldrich, St. Louis, Mo.), spun down, then resuspended in serum-free DMEM with 500 μM IBMX at a density of 1.25×10^6 cells/mL. 500 μL of cAMP antibody solution was added to 500 μL of cell suspension and incubated at room temperature for 20 min.
Test compounds were serially diluted (half-log dilutions) in DMSO and then further diluted 1:50 in PBS, 10 mM HEPES buffer. 2 μL of serially diluted compound was added to a 384-well low volume plate (Greiner cat #784075) and centrifuged briefly. 2 μl of the cell/cAMP antibody mixture was then added to each compound-containing well and allowed to incubate at room temperature for one (1) hour. Following incubation, the XS+ kits' ED/Lysis/CL Substrate Working Solution was prepared following the manufacturer's recommended protocol and 4 μL was added to each well of the plate. The plate was then incubated for one (1) hour at room temperature. Following incubation, 4 μL of (Enzyme Acceptor) EA reagent was added to the plate and allowed to incubate overnight at room temperature. Luminescent signal was then detected using the Viewlux instrument (PerkinElmer, Waltham, Mass.).
In Table 52, EC50 values for both human and mouse cells were determined according to the TGR5 cAMP assays described above. […]

CC(=O)N1CCC(Nc2cc(N3CCC[C@H]3C(=O)NCCc3ccc(C#N)cc3)nc(C(F)(F)F)n2)CC1 [Compound 53, (S)-1-(6-((1-acetylpiperidin-4-yl)amino)-2-(trifluoromethyl)pyrimidin-4-yl)-N-(4-cyanophenethyl)pyrrolidine-2-carboxamide]
EC50 (human TGR5 receptor): 1000 to 30000 nM
EC50 (mouse TGR5 receptor): < 100 nM

O=C(NCCc1ccc(C(F)(F)F)cc1)[C@@H]1CCCN1c1cc(NCc2cccnc2)nc(C(F)(F)F)n1 [Compound 4]
EC50 (human TGR5 receptor): 1000 to 30000 nM
EC50 (mouse TGR5 receptor): 100 to 999 nM

N#Cc1ccc(CCNC(=O)[C@@H]2CCCN2c2cc(-c3ccc(C#N)cc3)nc(C(F)(F)F)n2)cc1 [Compound 145, (S)-N-(4-cyanophenethyl)-1-(6-(4-cyanophenyl)-2-(trifluoromethyl)pyrimidin-4-yl)pyrrolidine-2-carboxamide]
EC50 (human TGR5 receptor): 100 to 999 nM
EC50 (mouse TGR5 receptor): < 100 nM

N#Cc1ccc(CCNC(=O)[C@@H]2CCN2c2cc(-c3cccnc3)nc(C(F)(F)F)n2)cc1 [Compound 305, (S)-N-(4-cyanophenethyl)-1-(6-(pyridin-3-yl)-2-(trifluoromethyl)pyrimidin-4-yl)azetidine-2-carboxamide]
EC50 (human TGR5 receptor): 1000 to 30000 nM
EC50 (mouse TGR5 receptor): 100 to 999 nM

N#Cc1ccc(CCNC(=O)[C@@H]2CCN2c2cc(N3CCC(CN)CC3)nc(C(F)(F)F)n2)cc1 [Compound 245, (S)-(1-(6-(4-aminomethylpiperidin-1-yl)-2-(trifluoromethyl)pyrimidin-4-yl)-N-(4-cyanophenethyl)azetidine-2-carboxamide hydrochloride]
EC50 (human TGR5 receptor): 100 to 999 nM
EC50 (mouse TGR5 receptor): 100 to 999 nM

CC(=O)NCC1CCN(c2cc(N3CCC[C@H]3C(=O)NCCc3ccc(C#N)cc3)nc(C(F)(F)F)n2)CC1 [Compound 52, (S)-1-(6-(4-(acetamidomethyl)piperidin-1-yl)-2-(trifluoromethyl)pyrimidin-4-yl)-N-(4-cyanophenethyl)pyrrolidine-2-carboxamide]
EC50 (human TGR5 receptor): 100 to 999 nM
EC50 (mouse TGR5 receptor): < 100 nM

O=C(NCCc1ccc(C(F)(F)F)cc1)[C@@H]1CCCN1c1cc(NCc2ccncc2)nc(C(F)(F)F)n1 [Compound 3]
EC50 (human TGR5 receptor): 1000 to 30000 nM
EC50 (mouse TGR5 receptor): 100 to 999 nM

CCCCCCc1ccc(-c2cc(N3CCC[C@H]3C(=O)NCCc3ccc(C#N)cc3)nc(C(F)(F)F)n2)s1 [Compound 139, (S)—N-(4-cyanophenethyl)-1-(6-(5-hexylthiophen-2-yl)-2-(trifluoromethyl)pyrimidin-4-yl)pyrrolidine-2-carboxamide]
EC50 (human TGR5 receptor): 1000 to 30000 nM
EC50 (mouse TGR5 receptor): 1000 to 30000 nM

CC(C)(C)OC(=O)NCCC1CCN(c2cc(N3CCC[C@H]3C(=O)NCCc3ccc(C#N)cc3)nc(C(F)(F)F)n2)CC1 [Compound 18]
EC50 (human TGR5 receptor): 100 to 999 nM
EC50 (mouse TGR5 receptor): 100 to 999 nM

N#Cc1ccc(CCNC(=O)[C@@H]2CCCN2c2cc(-c3cccnc3)nc(C(F)(F)F)n2)cc1 [Compound 142, (S)-N-(4-cyanophenethyl)-1-(6-(pyridin-3-yl)-2-(trifluoromethyl)pyrimidin-4-yl)pyrrolidine-2-carboxamide]
EC50 (human TGR5 receptor): 1000 to 30000 nM
EC50 (mouse TGR5 receptor): 100 to 999 nM

CNC(=O)c1cc(-c2cc(N3CCC[C@H]3C(=O)NCCc3ccc(C#N)cc3)nc(C(F)(F)F)n2)cs1 [Compound 179, (S)—N-(4-cyanophenethyl)-1-(6-(5-(methylcarbamoyl)thiophen-3-yl)-2-(trifluoromethyl)pyrimidin-4-yl)pyrrolidine-2-carboxamide]
EC50 (human TGR5 receptor): 1000 to 30000 nM
EC50 (mouse TGR5 receptor): 1000 to 30000 nM

Cc1ccc(-c2cc(N3CCC[C@H]3C(=O)NCCc3ccc(C#N)cc3)nc(C(F)(F)F)n2)o1 [Compound 166, (S)-N-(4-cyanophenethyl)-1-(6-(5-methylfuran-2-yl)-2-(trifluoromethyl)pyrimidin-4-yl)pyrrolidine-2-carboxamide]
EC50 (human TGR5 receptor): 100 to 999 nM
EC50 (mouse TGR5 receptor): 100 to 999 nM

N#Cc1ccc(CCNC(=O)[C@@H]2CCCN2c2cc(Oc3ccccc3)nc(C(F)(F)F)n2)cc1 [Compound 43, (S)-N-(4-cyanophenethyl)-1-(6-phenoxy-2-(trifluoromethyl)pyrimidin-4-yl)pyrrolidine-2-carboxamide]
EC50 (human TGR5 receptor): 100 to 999 nM
EC50 (mouse TGR5 receptor): 100 to 999 nM

COCCOc1cc(N2CCC[C@H]2C(=O)NCCc2ccc(C(F)(F)F)cc2)nc(C(F)(F)F)n1 [Compound 42, (S)-1-(6-(2-methoxyethoxy)-2-(trifluoromethyl)pyrimidin-4-yl)-N-(4-(trifluoromethyl)phenethyl)pyrrolidine-2-carboxamide]
EC50 (human TGR5 receptor): 100 to 999 nM
EC50 (mouse TGR5 receptor): 100 to 999 nM

O=C(NCCc1ccc(C(F)(F)F)cc1)[C@@H]1CCCN1c1cc(N2CCC(CCO)CC2)nc(C(F)(F)F)n1 [Compound 7]
EC50 (human TGR5 receptor): < 100 nM
EC50 (mouse TGR5 receptor): < 100 nM

COCC1CCN(c2cc(N3CCC[C@@H](C(=O)NCCc4ccc(C#N)cc4)C3)nc(C(F)(F)F)n2)CC1 [Compound 310, (R)-N-(4-cyanophenethyl)-1-(6-(4-(methoxymethyl)piperidin-1-y1)-2-(trifluoromethyl)pyrimidin-4-yl)piperidine-3-carboxamide]
EC50 (human TGR5 receptor): < 100 nM
EC50 (mouse TGR5 receptor): 100 to 999 nM

CNCC1CCN(c2cc(N3CCC[C@H]3C(=O)NCCc3ccc(C#N)cc3)nc(C(F)(F)F)n2)CC1 [Compound 49]
EC50 (human TGR5 receptor): 100 to 999 nM
EC50 (mouse TGR5 receptor): 100 to 999 nM

N#Cc1ccc(CCNC(=O)[C@@H]2CCCN2c2cc(-c3ccncc3F)nc(C(F)(F)F)n2)cc1 [Compound 155, (S)-N-(4-cyanophenethyl)-1-(6-(3-fluoropyridin-4-yl)-2-(trifluoromethyl)pyrimidin-4-yl)pyrrolidine-2-carboxamide]
EC50 (human TGR5 receptor): 100 to 999 nM
EC50 (mouse TGR5 receptor): 100 to 999 nM

Cn1ccc2cc(-c3cc(N4CCC[C@H]4C(=O)NCCc4ccc(C#N)cc4)nc(C(F)(F)F)n3)ccc21 [Compound 169, (S)-N-(4-cyanophenethyl)-1-(6-(1-methyl-1H-indol-5-yl)-2-(trifluoromethyl)pyrimidin-4-yl)pyrrolidine-2-carboxamide]
EC50 (human TGR5 receptor): 1000 to 30000 nM
EC50 (mouse TGR5 receptor): 100 to 999 nM

COc1cnccc1-c1cc(N2CCC[C@H]2C(=O)NCCc2ccc(C#N)cc2)nc(C(F)(F)F)n1 [Compound 159, (S)-N-(4-cyanophenethyl)-1-(6-(3-methoxypyridin-4-yl)-2-(trifluoromethyl)pyrimidin-4-yl)pyrrolidine-2-carboxamide]
EC50 (human TGR5 receptor): 1000 to 30000 nM
EC50 (mouse TGR5 receptor): < 100 nM

N#Cc1ccc(CCNC(=O)[C@@H]2CCCN2c2cc(-c3ccc4[nH]ccc4c3)nc(C(F)(F)F)n2)cc1 [Compound 157, (S)-1-(6-(1H-indol-5-yl)-2-(trifluoromethyl)pyrimidin-4-yl)-N-(4-cyanophenethyl)pyrrolidine-2-carboxamide]
EC50 (human TGR5 receptor): 100 to 999 nM
EC50 (mouse TGR5 receptor): < 100 nM

CC(C)(C)OC(=O)N1CCC(Oc2cc(N3CC[C@H]3C(=O)NCCc3ccc(C#N)cc3)nc(C(F)(F)F)n2)CC1 [Compound 243, (S)-tert-butyl 4-((6-(2-((4-cyanophenethyl)carbamoyl)azetidin-1-yl)-2-(trifluoromethyl)pyrimidin-4-yl)oxy)piperidine-1-carboxylate]
EC50 (human TGR5 receptor): 100 to 999 nM
EC50 (mouse TGR5 receptor): 100 to 999 nM

N#Cc1ccc(CCNC(=O)[C@@H]2CCCN2c2cc(-c3cccs3)nc(C(F)(F)F)n2)cc1 [Compound 165, (S)-N-(4-cyanophenthyl)-1-(6-(thiophene-2-yl)-2-(trifluoromethyl)pyrimidin-4-yl)pyrrolidine-2-carboxamide]
EC50 (human TGR5 receptor): 100 to 999 nM
EC50 (mouse TGR5 receptor): 100 to 999 nM
